Values quoted from earlier work, collected in patent publication US9005185B2, “Nanochanneled device and related methods” (The Board of Regents of the University of Texas System, priority 2008, dated 2015).

Biological target: T1, Aromatase (Homo sapiens, UniProt P11511)
T1 sequence (P11511 1-503): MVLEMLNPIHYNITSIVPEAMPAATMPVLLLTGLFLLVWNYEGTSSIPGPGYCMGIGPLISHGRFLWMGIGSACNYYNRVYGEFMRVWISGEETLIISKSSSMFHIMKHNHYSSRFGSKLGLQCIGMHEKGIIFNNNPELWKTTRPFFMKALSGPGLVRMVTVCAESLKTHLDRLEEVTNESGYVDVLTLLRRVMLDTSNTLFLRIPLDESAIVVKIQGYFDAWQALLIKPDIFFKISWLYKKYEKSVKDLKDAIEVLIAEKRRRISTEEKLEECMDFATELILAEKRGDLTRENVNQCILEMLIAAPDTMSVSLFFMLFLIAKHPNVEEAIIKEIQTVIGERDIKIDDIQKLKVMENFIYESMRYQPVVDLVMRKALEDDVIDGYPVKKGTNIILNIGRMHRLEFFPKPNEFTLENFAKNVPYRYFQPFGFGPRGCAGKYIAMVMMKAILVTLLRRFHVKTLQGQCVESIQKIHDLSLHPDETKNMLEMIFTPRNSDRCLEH

inhibits estrogen biosynthesis: approximately 99%
Compound: N#Cc1ccc(C(c2ccc(C#N)cc2)n2cncn2)cc1 [letrozole]
